Source: the supplement of paper PMC11451515

Legend:
NOMO1 [1] = assay: cell viability relative to DMSO control; higher = less cytotoxic; conditions: 48 h
Method in brief: (§1)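 NOMO1 or SEM cells were plated at 500 cells/well and P12-Ichikawa cells at 1000 cells/well in 1536-well plates (5 μl), after each leukemia line had been adapted for at least four passages in each medium. Pin dosing delivered library compounds in DMSO at 11 threefold concentrations, 47 μM to 0.79 nM. CellTiter-Glo One luminescence was read after 48 h at 37°C. Viability is reported as a per-plate percentage of DMSO wells, with cell-free wells as background.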

P12-Ichikawa [2] = assay: as above; conditions: HPLM + 10% dialyzed FBS, 48 h
Method in brief: as §1

SEM cells [3] = assay: as above; conditions: 48 h
Method in brief: as §1

NOMO1 [4] = assay: AUC of viability dose-response curve (% viability x log10 dose units); higher = less sensitive; conditions: 48 h
Method in brief: (§2)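 Leukemia cells adapted to each medium (500 or 1000 cells/well, 1536-well plates) were exposed to library compounds in DMSO for 48 h at 37°C at 11 threefold doses, 47 μM to 0.79 nM. Luminescence by CellTiter-Glo One was normalised per plate to DMSO and cell-free wells, then fitted with a four-parameter log-logistic curve on log10 dose. Curves above full viability were scaled and quality-control failures removed before area under the curve was integrated by trapezoidal rule.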

P12-Ichikawa [5] = assay: as above; conditions: 48 h
Method in brief: as §2

SEM cells [6] = assay: as above; conditions: 48 h
Method in brief: as §2

CC(N[C@H]1C[C@@H]1c1ccccc1)c1ccc2c(c1)OCCO2 (stereo not given in full)
cell viability [%]
Conditions	HPLM + 10% dialyzed FBS	RPMI 5 mM glucose + 10% FBS	RPMI 5 mM glucose + 10% dialyzed FBS
NOMO1 [1], 0.000781 µM	–	105	115
NOMO1 [1], 0.00234 µM	–	117	124
NOMO1 [1], 0.00702 µM	–	116	115
NOMO1 [1], 0.0211 µM	–	106	126
NOMO1 [1], 0.0632 µM	–	103	119
NOMO1 [1], 0.19 µM	–	102	114
NOMO1 [1], 0.569 µM	–	113	126
NOMO1 [1], 1.71 µM	–	112	123
NOMO1 [1], 5.12 µM	–	114	110
NOMO1 [1], 15.4 µM	–	98.7	118
NOMO1 [1], 46.1 µM	–	109	111
SEM cells [3], 0.000781 µM	111	99.3	121
SEM cells [3], 0.00234 µM	135	95.1	123
SEM cells [3], 0.00702 µM	116	94.7	100
SEM cells [3], 0.0211 µM	122	97.7	121
SEM cells [3], 0.0632 µM	110	107	110
SEM cells [3], 0.19 µM	122	100	134
SEM cells [3], 0.569 µM	126	108	138
SEM cells [3], 1.71 µM	126	110	111
SEM cells [3], 5.12 µM	141	107	119
SEM cells [3], 15.4 µM	116	98.4	119
SEM cells [3], 46.1 µM	109	93.5	92.6

Conditions	AUC of viability dose-response curve	cell viability [%]
NOMO1 [4], HPLM + 10% dialyzed FBS	434	–
NOMO1 [4], RPMI 5 mM glucose + 10% FBS	470	–
NOMO1 [4], RPMI 5 mM glucose + 10% dialyzed FBS	470	–
P12-Ichikawa [2], 0.000781 µM	–	119
P12-Ichikawa [2], 0.00234 µM	–	117
P12-Ichikawa [2], 0.00702 µM	–	121
P12-Ichikawa [2], 0.0211 µM	–	128
P12-Ichikawa [2], 0.0632 µM	–	119
P12-Ichikawa [2], 0.19 µM	–	118
P12-Ichikawa [2], 0.569 µM	–	116
P12-Ichikawa [2], 1.71 µM	–	113
P12-Ichikawa [2], 5.12 µM	–	107
P12-Ichikawa [2], 15.4 µM	–	112
P12-Ichikawa [2], 46.1 µM	–	104
P12-Ichikawa [5], HPLM + 10% dialyzed FBS	458	–
P12-Ichikawa [5], RPMI 5 mM glucose + 10% FBS	469	–
P12-Ichikawa [5], RPMI 5 mM glucose + 10% dialyzed FBS	451	–
SEM cells [6], HPLM + 10% dialyzed FBS	475	–
SEM cells [6], RPMI 5 mM glucose + 10% FBS	467	–
SEM cells [6], RPMI 5 mM glucose + 10% dialyzed FBS	471	–
